The supplement of paper PMC12463676, “Small-molecule dissolution of stress granules by redox modulation benefits ALS models” (Nature Chemical Biology, 2025)

Tests used:
[1] = compound: NC(=O)CCCCC1CCSS1 [lipoamide]; assay: thermal stability z-score vs DMSO; higher = more thermally stabilized by treatment; details: HeLa, lipoamide concentration 100 µM
Experimental: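 Cellular thermal proteome profiling in HeLa cells. Cells were treated with 100 µM lipoamide for 1 h, with or without 1 mM arsenate for a further 1 h, then heated to ten temperatures (37-66.3 °C), and soluble protein was quantified by TMT mass spectrometry relative to 0.1% DMSO controls. The thermal stability score (sum of log2 fold changes minus the abundance score) was transformed to a z-score; mean of n = 3 experiments.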

[2] = compound: O=[As]([O-])(O)O.[K+] [potassium arsenate]; assay: as above; details: HeLa; arsenate concentration 1 mM
Experimental: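 Cellular thermal proteome profiling in HeLa cells treated with 1 mM arsenate for 1 h (DMSO pretreatment), heated to ten temperatures (37-66.3 °C). Soluble protein was quantified by TMT mass spectrometry relative to DMSO controls; the thermal stability score was transformed to a z-score; mean of n = 3 experiments.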

[3] = arsenate co-treatment: 1 mM arsenate 1 h
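Note: each temperature applied for 3 min, abundance score taken as mean log2 fold change at the two lowest temperatures, z-score obtained by mean subtraction and division by SD.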

UniProt Q9BUI4, sequence (Q9BUI4 whole entry): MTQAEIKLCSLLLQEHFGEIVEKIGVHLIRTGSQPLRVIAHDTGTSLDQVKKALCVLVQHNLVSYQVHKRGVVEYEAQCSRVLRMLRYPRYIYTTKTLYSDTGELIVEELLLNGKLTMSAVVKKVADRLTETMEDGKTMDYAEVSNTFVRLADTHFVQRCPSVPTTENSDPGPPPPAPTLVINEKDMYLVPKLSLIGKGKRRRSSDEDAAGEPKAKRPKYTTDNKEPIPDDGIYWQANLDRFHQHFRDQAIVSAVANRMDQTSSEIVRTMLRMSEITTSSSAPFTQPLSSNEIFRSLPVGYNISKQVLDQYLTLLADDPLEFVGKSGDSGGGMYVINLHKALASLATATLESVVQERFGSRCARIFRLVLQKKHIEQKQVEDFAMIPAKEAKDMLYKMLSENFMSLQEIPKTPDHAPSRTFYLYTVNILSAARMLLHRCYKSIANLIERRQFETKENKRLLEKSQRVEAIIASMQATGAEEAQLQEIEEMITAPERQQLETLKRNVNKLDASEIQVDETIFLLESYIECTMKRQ
UniProt Q15165, sequence (Q15165 whole entry): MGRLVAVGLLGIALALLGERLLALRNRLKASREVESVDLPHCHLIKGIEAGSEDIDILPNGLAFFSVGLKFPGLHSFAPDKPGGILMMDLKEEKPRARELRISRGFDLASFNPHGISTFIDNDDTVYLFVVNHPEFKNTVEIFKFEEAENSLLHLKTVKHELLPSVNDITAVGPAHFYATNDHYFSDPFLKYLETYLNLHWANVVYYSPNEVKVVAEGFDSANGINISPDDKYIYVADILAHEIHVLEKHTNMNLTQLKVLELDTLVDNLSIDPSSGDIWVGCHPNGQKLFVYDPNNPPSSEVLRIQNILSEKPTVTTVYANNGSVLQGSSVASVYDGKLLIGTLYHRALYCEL
UniProt O15318, sequence (O15318 whole entry): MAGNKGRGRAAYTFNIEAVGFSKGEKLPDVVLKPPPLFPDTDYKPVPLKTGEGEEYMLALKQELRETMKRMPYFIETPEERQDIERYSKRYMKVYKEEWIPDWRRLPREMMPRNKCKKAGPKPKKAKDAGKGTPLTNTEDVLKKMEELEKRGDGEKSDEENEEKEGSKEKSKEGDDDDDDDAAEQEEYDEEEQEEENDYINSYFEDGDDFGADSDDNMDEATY
UniProt Q969H6, sequence (Q969H6 whole entry): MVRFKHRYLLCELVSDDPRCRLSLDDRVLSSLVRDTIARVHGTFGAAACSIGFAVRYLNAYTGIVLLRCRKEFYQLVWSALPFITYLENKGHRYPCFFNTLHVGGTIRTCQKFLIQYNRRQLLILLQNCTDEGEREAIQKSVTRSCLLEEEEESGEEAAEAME
UniProt P16435, sequence (P16435 whole entry): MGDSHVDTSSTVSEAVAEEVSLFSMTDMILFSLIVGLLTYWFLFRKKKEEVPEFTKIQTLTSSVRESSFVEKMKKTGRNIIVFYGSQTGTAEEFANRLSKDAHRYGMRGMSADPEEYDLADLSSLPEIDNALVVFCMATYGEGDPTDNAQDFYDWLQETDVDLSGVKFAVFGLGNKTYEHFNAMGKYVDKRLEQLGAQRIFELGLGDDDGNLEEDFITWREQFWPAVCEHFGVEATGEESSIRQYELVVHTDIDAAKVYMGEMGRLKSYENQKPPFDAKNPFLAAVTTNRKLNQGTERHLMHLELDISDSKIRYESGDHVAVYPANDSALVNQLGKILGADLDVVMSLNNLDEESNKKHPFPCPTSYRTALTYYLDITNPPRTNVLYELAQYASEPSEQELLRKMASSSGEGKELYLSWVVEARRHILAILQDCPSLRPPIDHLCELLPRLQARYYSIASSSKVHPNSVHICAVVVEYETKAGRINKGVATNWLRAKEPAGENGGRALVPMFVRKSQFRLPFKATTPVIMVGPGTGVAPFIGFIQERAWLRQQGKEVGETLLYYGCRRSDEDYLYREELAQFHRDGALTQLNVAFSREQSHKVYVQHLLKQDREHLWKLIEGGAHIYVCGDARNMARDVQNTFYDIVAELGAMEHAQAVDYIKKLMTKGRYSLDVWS
UniProt Q9Y2Y1, sequence (Q9Y2Y1 whole entry): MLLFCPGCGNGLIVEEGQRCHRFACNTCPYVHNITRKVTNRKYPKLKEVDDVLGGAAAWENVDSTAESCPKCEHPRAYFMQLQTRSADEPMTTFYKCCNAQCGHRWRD
UniProt Q9H1D9, sequence (Q9H1D9 whole entry): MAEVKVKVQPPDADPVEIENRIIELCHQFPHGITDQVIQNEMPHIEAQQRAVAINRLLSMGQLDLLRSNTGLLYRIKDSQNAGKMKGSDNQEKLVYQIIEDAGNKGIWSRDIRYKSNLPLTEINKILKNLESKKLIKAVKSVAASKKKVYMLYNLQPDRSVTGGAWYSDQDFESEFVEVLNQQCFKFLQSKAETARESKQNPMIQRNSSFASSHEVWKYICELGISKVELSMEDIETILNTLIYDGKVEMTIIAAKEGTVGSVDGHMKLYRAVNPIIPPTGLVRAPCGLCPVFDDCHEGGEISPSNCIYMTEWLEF
UniProt O75817, sequence (O75817 whole entry): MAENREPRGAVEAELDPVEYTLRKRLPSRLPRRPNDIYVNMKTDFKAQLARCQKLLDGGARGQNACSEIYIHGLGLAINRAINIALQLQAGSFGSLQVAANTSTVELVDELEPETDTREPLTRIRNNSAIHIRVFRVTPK
UniProt O14802, sequence (O14802 whole entry): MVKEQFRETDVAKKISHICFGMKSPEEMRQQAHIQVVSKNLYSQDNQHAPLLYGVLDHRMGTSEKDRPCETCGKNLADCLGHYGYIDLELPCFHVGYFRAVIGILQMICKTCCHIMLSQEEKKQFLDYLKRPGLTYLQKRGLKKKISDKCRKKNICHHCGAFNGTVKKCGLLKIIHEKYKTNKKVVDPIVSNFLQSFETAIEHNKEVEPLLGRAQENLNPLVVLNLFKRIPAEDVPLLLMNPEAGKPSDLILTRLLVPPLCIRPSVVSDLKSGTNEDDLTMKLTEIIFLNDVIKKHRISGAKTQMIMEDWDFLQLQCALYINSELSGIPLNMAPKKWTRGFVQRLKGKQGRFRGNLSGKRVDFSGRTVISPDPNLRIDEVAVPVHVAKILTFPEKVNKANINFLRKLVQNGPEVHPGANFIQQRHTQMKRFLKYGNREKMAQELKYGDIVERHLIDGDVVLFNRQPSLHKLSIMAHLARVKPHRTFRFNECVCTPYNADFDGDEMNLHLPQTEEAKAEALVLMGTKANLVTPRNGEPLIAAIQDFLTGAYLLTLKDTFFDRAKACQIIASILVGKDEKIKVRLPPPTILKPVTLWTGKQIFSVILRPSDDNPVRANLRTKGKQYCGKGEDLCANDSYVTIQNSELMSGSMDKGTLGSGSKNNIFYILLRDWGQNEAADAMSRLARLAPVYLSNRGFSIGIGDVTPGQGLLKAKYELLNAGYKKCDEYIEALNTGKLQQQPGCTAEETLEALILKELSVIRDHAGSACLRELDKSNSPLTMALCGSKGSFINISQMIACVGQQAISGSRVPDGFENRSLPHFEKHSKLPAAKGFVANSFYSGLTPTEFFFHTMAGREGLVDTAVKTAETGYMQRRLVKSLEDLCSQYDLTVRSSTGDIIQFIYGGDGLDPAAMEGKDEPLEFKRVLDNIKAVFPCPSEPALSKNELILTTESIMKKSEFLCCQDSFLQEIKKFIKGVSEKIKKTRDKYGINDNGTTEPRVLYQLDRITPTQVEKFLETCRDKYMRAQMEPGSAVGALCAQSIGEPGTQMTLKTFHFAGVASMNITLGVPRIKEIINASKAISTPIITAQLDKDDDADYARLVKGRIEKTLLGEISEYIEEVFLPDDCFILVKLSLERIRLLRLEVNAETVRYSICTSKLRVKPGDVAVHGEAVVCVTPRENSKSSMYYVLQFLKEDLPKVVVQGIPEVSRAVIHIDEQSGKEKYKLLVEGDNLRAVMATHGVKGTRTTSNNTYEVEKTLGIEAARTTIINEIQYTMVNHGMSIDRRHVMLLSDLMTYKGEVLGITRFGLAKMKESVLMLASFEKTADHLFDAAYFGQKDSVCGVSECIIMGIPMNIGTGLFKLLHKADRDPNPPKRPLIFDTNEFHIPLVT
UniProt Q99575, sequence (Q99575 whole entry): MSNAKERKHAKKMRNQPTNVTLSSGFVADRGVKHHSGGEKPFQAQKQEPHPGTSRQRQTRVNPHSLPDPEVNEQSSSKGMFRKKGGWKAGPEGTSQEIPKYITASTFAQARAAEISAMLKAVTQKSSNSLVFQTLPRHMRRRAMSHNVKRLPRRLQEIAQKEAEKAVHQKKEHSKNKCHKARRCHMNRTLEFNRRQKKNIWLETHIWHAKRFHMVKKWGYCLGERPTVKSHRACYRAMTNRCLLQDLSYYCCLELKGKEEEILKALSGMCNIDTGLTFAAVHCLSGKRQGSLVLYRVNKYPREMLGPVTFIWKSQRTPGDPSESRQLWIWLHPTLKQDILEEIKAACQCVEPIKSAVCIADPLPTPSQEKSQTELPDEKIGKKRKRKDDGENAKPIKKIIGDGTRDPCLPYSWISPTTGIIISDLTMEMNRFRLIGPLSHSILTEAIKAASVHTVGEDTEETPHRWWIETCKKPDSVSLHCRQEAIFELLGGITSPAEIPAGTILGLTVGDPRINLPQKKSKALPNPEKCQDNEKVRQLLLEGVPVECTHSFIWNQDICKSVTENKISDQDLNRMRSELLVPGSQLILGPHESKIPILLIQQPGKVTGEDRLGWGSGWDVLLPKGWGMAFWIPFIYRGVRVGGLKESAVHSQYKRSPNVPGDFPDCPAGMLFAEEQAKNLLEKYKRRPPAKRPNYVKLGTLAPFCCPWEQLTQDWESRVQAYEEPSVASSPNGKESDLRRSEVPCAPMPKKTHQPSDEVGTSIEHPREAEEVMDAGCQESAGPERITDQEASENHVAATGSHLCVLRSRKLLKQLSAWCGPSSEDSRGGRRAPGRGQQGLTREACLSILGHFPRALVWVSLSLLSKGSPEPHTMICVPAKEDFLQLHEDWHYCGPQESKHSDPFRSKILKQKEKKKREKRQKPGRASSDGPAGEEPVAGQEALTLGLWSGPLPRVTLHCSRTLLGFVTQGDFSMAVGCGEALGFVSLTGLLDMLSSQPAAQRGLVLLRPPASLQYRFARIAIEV

Target	thermal stability z-score [1, 3]	thermal stability z-score ([1]; arsenate co-treatment: none)	thermal stability z-score [2]
POLR1C (UniProt O15160)	0.267	0.621	-1.08
POLR1D	-0.0835	-0.377	-1.73
POLR1E (UniProt Q9GZS1)	0.144	0.0221	-0.0491
POLR2A (UniProt P24928)	0.89	0.82	-0.684
POLR2B (UniProt P30876)	0.77	0.769	0.205
POLR2C (UniProt P19387)	0.705	1.15	0.481
POLR2D (UniProt O15514)	1.21	0.628	-0.735
POLR2E (UniProt P19388)	0.281	0.459	-1.34
POLR2G (UniProt P62487)	0.343	0.681	-1.1
POLR2H (UniProt P52434)	0.98	1.03	-0.373
POLR2I (UniProt P36954)	1.79	0.367	-2.41
POLR2L (UniProt P62875)	1.27	0.782	0.335
POLR3A (UniProt O14802)	0.0126	-0.887	-1.69
POLR3B (UniProt Q9NW08)	0.417	0.0689	0.309
POLR3C (UniProt Q9BUI4)	0.213	0.0462	-0.411
POLR3D (UniProt P05423)	0.483	-0.501	-1.56
POLR3E (UniProt Q9NVU0)	0.0246	0.108	-0.126
POLR3F (UniProt Q9H1D9)	-0.186	-0.242	-1.32
POLR3G (UniProt O15318)	-0.603	-0.505	-0.356
POLR3K (UniProt Q9Y2Y1)	0.542	0.567	-3.08
POLRMT (UniProt O00411)	0.314	-0.744	-0.331
POM121C (UniProt A8CG34)	1.24	-0.678	1.38
POMGNT1 (UniProt Q8WZA1)	-0.429	0.0715	-0.0541
POMK (UniProt Q9H5K3)	0.213	-0.243	-0.285
PON2 (UniProt Q15165)	-4.17	-3.42	0.478
POP1 (UniProt Q99575)	-0.557	-0.523	-0.401
POP4 (UniProt O95707)	0.462	0.069	-0.193
POP5 (UniProt Q969H6)	-0.5	-0.587	-0.617
POP7 (UniProt O75817)	-0.211	0.214	0.592
POR (UniProt P16435)	-0.215	-0.028	1.03
